Assay results: patent US10550117B2, “2-azabicyclo[3.1.0]hexan-3-one derivatives and methods of use” (Genentech, Inc., priority 2016, dated 2020)

Experiments:
[1] = molecular target: nuclear factor-kappa B (NF-kB)-inducing kinase (NIK) (Homo sapiens (Human), UniProt Q99558); assay: NIK enzyme inhibition assay (Transcreener ADP fluorescence polarization); assay type: biochemical; conditions: for NIK enzyme inhibition, potency in words relative to the other stereoisomers: stereoisomers separated by chiral SFC, qualitative; for Ki: purified NIK 0.5 nM, 10 μM ATP, Morrison equation, read-out: NIK ADP-FP Ki
Method: The ability of the nuclear factor-kappa B (NF-kB)-inducing kinase (NIK) to catalyze the hydrolysis of adenosine-5′-triphosphate (ATP) was monitored using the Transcreener ADP (adenosine-5′-diphosphate) assay (BellBrook Labs). […] Reactions were quenched by the addition of 20 mM 2,2′,2″,2′″-(ethane-1,2-diyldinitrilo)tetraacetic acid and 0.01% Brij 35. The tracer bound to the antibody was displaced by the ADP generated during the NIK reaction, which causes a decrease in fluorescence polarization that was measured by laser excitation at 633 nm with a Fluorescence Correlation Spectroscopy Plus reader (Evotec AG). Equilibrium dissociation constant (Ki) values for NIK inhibitors are calculated from plots of activity vs. inhibitor concentration using Morrison's quadratic equation that accounts for the potential of tight binding, and by also applying the conversion factor that accounted for competitive inhibition and the concentration of substrate used in the assay relative to its Michaelis constant (Km).

[2] = tested on: p52 (NF-kB2) nuclear translocation in HeLa cells; assay: p52 HeLa nuclear translocation assay (anti-lymphotoxin beta receptor antibody stimulated); assay type: cell-based; conditions: Homo sapiens, 100 ng/mL anti-lymphotoxin beta receptor antibody
Method: (§1) (3) A third set of cell assays are used to define the selectivity of NIK inhibitors toward inhibition of classical vs. non-classical NF-kB signaling and rely on quantification of the nuclear translocation of p52 (NF-kB2) and REL-A (p65) using high content cellular imaging. For the p52 (non-classical NF-kB signaling) nuclear translocation assay, HeLa cells are treated with different concentrations of compounds (0.2% DMSO final) in medium containing 10% fetal bovine serum and then stimulated with 100 ng/mL of an anti-lymphotoxin beta receptor antibody (R&D Systems) for 5 hours. In the REL-A nuclear translocation assay, HeLa cells are incubated with compounds (0.2% DMSO final) for 4.5 hours in medium containing 10% fetal bovine serum before stimulating them with 10 ng/mL tumor necrosis factor (TNF)-α (R&D Systems) for 30 minutes. Cells are fixed with 4% paraformaldehyde, permeabilized by adding 0.1% Triton X-100 in phosphate buffered saline, and then are incubated with either 2 μg/mL anti-p52 antibody (Millipore) or 400 ng/mL anti-REL-A (p65) antibody (Santa Cruz Biotechnology). Finally, the cells are incubated with an Alexa488-labeled secondary antibody (Invitrogen) and DRAQ5 DNA stain (Biostatus). Imaging is carried out using an Opera reader (Perkin Elmer) and data are analyzed with the aid of Acapella software (Perkin Elmer). The p52 or REL-A translocation into the nucleus is quantified by the ratio of the nuclear to cytoplasmic signal intensity. […] The test compounds have the corresponding inhibitory values (IC50) for NIK REL-A (p65) and p52 Translocation Assays as set forth in Table B2.

[3] = tested on: REL-A (p65) nuclear translocation in HeLa cells; assay: REL-A HeLa nuclear translocation assay (TNF-α stimulated, high content imaging); assay type: cell-based; conditions: Homo sapiens, 10 ng/mL TNF-α
Method: as §1

[4] = Liver microsome stability; assay type: in vitro ADME; conditions: for HLM CL (human liver microsome clearance): human liver microsomes; for stability in human liver microsomes versus the corresponding pyrrolidinone comparator compound: qualitative comparison
Method: Metabolic stability assays in liver microsomes are conducted with pooled female CD-1 mouse, male Sprague-Dawley rat, male beagle dog, male cynomolgus monkey, and mixed male and female human liver microsomal incubations. The general assay conditions are as follows. Incubation mixtures consisted of liver microsomes (0.5 mg of microsomal protein/ml) and the test compound (1.0 μM) with or without NADPH (1.0 mM) in the potassium phosphate buffer (100 mM; pH 7.4) with a final incubation volume of 0.25 ml. Reactions are initiated by the addition of NADPH or buffer and shaken in a water bath open to the air at 37° C. At times 0, 20, 40, and 60 min, aliquots (50 μl) are removed and added to termination mixtures (100 μl) containing acetonitrile and an internal standard. The samples are then centrifuged for 10 min at 2000 g. The supernatant (90 μl) is removed, combined with 180 μl of water, and analyzed by LC-MS/MS.
Metabolic stability of the test compounds were evaluated in human liver microsomes following known protocols described in Halladay, et al. Drug Metabol. Lett. 2007, 1:67-72.

[5] = Hepatocyte stability; assay type: in vitro ADME; conditions: human hepatocytes
Method: General. Metabolic stability assays in hepatocytes are conducted using cryopreserved pooled female CD-1 mouse, male Sprague-Dawley rat, male beagle dog, male cynomolgus monkey, and mixed male and female human hepatocytes (CellzDirect). Vials of hepatocytes are thawed rapidly in a water bath set at 37° C. and then are diluted with Dulbecco's modified Eagle's medium (DMEM), pH 7.4. Cells are isolated by centrifugation, pooled, and resuspended in DMEM at 1.0 million viable cells/ml. Membrane integrity of the cells is assessed by trypan blue exclusion. The test compound is dissolved in dimethyl sulfoxide at a final concentration of 10 mM. This test compound stock is diluted further to 2 μM in DMEM (125 μl) before the addition of an equal volume of the 10^6 cells/ml cell suspension. The test compound (final incubation concentration of 1.0 μM with 0.1% dimethyl sulfoxide) and cells (final concentration of 0.5×10^6 cells/ml) are incubated at 37° C. in a 95% air/5% CO2 atmosphere for 3 h. Aliquots (50 μl) are removed at 0, 1, 2, and 3 hours and added to termination mixtures (100 μl) containing acetonitrile and an internal standard. The samples are then centrifuged for 10 min at 2000 g. The supernatant (90 μl) is removed, combined with 180 μl of water, and analyzed by LC-MS/MS.
Metabolic stability of the test compounds were evaluated also in human hepatocytes, following protocols described in Hallifax, et al. Drug Metabol. Disposition, 2005, 33:1852-1858.

Sequence of nuclear factor-kappa B (NF-kB)-inducing kinase (NIK) (Q99558 whole entry): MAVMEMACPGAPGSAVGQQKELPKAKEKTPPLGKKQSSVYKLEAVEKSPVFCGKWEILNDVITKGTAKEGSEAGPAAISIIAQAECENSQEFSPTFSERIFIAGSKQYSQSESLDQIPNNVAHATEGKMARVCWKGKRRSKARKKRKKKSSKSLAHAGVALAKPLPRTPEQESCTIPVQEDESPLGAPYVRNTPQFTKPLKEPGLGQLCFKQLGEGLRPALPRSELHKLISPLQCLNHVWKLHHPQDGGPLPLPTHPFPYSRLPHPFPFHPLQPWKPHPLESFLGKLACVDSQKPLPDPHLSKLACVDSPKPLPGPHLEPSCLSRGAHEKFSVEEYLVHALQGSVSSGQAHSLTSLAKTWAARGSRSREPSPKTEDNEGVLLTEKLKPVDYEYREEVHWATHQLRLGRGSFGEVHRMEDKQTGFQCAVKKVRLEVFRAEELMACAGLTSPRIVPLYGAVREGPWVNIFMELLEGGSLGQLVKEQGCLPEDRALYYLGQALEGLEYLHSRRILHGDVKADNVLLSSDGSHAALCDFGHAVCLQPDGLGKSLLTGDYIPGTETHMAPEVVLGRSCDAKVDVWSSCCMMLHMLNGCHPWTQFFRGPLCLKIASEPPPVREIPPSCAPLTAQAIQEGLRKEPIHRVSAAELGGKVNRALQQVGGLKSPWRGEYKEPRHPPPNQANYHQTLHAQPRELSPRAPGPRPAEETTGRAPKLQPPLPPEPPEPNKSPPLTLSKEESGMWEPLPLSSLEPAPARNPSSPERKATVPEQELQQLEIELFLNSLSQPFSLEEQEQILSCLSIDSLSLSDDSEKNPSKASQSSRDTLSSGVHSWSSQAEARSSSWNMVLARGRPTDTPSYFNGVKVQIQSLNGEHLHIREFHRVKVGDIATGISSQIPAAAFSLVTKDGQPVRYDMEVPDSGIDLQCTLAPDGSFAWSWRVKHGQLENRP

SMILES | NIK enzyme inhibition, potency in words relative to the other stereoisomers [1] | further results
COc1ccn2c(C(N)=O)nc(-c3cccc(C#C[C@]4(O)C(=O)N(C)[C@H]5C[C@H]54)c3)c2c1 [1-(3-(((1S,4S,5R)-4-hydroxy-2-methyl-3-oxo-2-azabicyclo[3.1.0]hexan-4-yl)ethynyl)phenyl)-7-methoxyimidazo[1,5-a]pyridine-3-carboxamide] | no measurable inhibition | –
COc1ccn2c(C(N)=O)nc(-c3cccc(C#C[C@]4(O)C(=O)N(C)[C@@H]5C[C@@H]54)c3)c2c1 [1-(3-(((1R,4S,5S)-4-hydroxy-2-methyl-3-oxo-2-azabicyclo[3.1.0]hexan-4-yl)ethynyl)phenyl)-7-methoxyimidazo[1,5-a]pyridine-3-carboxamide] | third most potent NIK enzyme inhibitor among the 4 stereoisomers | –
CN1C(=O)[C@@](O)(C#Cc2cccc(-c3nc(C(N)=O)n4ccccc34)c2)[C@H]2C[C@H]21 [1-(3-(((1R,4S,5S)-4-hydroxy-2-methyl-3-oxo-2-azabicyclo[3.1.0]hexan-4-yl)ethynyl)phenyl)imidazo[1,5-a]pyridine-3-carboxamide] | third most potent NIK enzyme inhibitor among the 4 stereoisomers | –
CN1CC[C@@](O)(C#Cc2cccc(-n3nc(C(N)=O)c4cccnc43)c2)C1=O [Compound C-1] | – | IC50 [2]: 79.5 nM; IC50 [3]: > 20000 nM
CN1C(=O)[C@@](O)(C#Cc2cccc(-c3nc(C(N)=O)n4ccccc34)c2)[C@@H]2C[C@@H]21 [1-(3-(((1 S,4S,5R)-4-hydroxy-2-methyl-3-oxo-2-azabicyclo[3.1.0]hexan-4-yl)ethynyl)phenyl)imidazo[1,5-a]pyridine-3-carboxamide] | no measurable inhibition | –
CN1C(=O)[C@@](O)(C#Cc2cccc(-n3nc(C(N)=O)c4cccnc43)c2)[C@H]2C[C@H]21 [1-(3-(((1R,4S,5S)-4-hydroxy-2-methyl-3-oxo-2-azabicyclo[3.1.0]hexan-4-yl)ethynyl)phenyl)-1H-pyrazolo[3,4-b]pyridine-3-carboxamide] | no measurable inhibition | –
COc1ccn2c(C(N)=O)nc(-c3cccc(C#C[C@@]4(O)C(=O)N(C)[C@@H]5C[C@@H]54)c3)c2c1 [Compound 4, 1-(3-(((1R,4R,5S)-4-hydroxy-2-methyl-3-oxo-2-azabicyclo[3.1.0]hexan-4-yl)ethynyl)phenyl)-7-methoxyimidazo[1,5-a]pyridine-3-carboxamide] | most potent NIK enzyme inhibitor among the 4 stereoisomers | Ki [1]: 0.05 nM; HLM CL (human liver microsome clearance) [4]: 12 mL/min/kg; stability in human liver microsomes versus the corresponding pyrrolidinone comparator compound [4]: better stability
CN1C(=O)[C@@](O)(C#Cc2cccc(-n3nc(C(N)=O)c4cccnc43)c2)[C@@H]2C[C@@H]21 [1-(3-(((1 S,4S,5R)-4-hydroxy-2-methyl-3-oxo-2-azabicyclo[3.1.0]hexan-4-yl)ethynyl)phenyl)-1H-pyrazolo[3,4-b]pyridine-3-carboxamide] | no measurable inhibition | –
CN1C(=O)[C@](O)(C#Cc2cccc(-c3nc(C(N)=O)n4ccccc34)c2)[C@@H]2C[C@@H]21 [1-(3-(((1 S,4R,5R)-4-hydroxy-2-methyl-3-oxo-2-azabicyclo[3.1.0]hexan-4-yl)ethynyl)phenyl)imidazo[1,5-a]pyridine-3-carboxamide] | second most potent NIK enzyme inhibitor among the 4 stereoisomers | –
CN1C(=O)[C@@](O)(C#Cc2cccc(-c3nc(C(N)=O)c4ccccn34)c2)[C@@H]2C[C@@H]21 [3-(3-(((1S,4S,5R)-4-hydroxy-2-methyl-3-oxo-2-azabicyclo[3.1.0]hexan-4-yl)ethynyl)phenyl)imidazo[1,5-a]pyridine-1-carboxamide] | third most potent NIK enzyme inhibitor among the 4 stereoisomers | –
CN1CC[C@@](O)(C#Cc2cccc(-c3nc(C(N)=O)c4ccccn34)c2)C1=O [Compound C-5] | – | IC50 [2]: 240 nM; IC50 [3]: > 20000 nM
CN1C(=O)[C@](O)(C#Cc2cccc(-c3nc(C(N)=O)c4ccccn34)c2)[C@@H]2C[C@@H]21 [3-(3-(((1 S,4R,5R)-4-hydroxy-2-methyl-3-oxo-2-azabicyclo[3.1.0]hexan-4-yl)ethynyl)phenyl)imidazo[1,5-a]pyridine-1-carboxamide] | second most potent NIK enzyme inhibitor among the 4 stereoisomers | –
CN1C(=O)[C@](O)(C#Cc2cccc(-c3nc(C(N)=O)c(N)s3)c2)[C@H]2C[C@H]21 [Compound 6, 5-amino-2-(3-(((1R,4R,5S)-4-hydroxy-2-methyl-3-oxo-2-azabicyclo[3.1.0]hexan-4-yl)ethynyl)phenyl)thiazole-4-carboxamide] | most potent NIK enzyme inhibitor among the 4 stereoisomers | Ki [1]: 0.05 nM; Hep CL (human hepatocyte clearance) [5]: 2.7 mL/min/kg; HLM CL (human liver microsome clearance) [4]: 1.6 mL/min/kg; stability in human liver microsomes versus the corresponding pyrrolidinone comparator compound [4]: better stability
CN1C(=O)C(O)(C#Cc2cccc(-c3nc(C(N)=O)c(N)s3)c2)C2CC21 (single isomer, unassigned) [5-amino-2-(3-((4-hydroxy-2-methyl-3-oxo-2-azabicyclo[3.1.0]hexan-4-yl)ethynyl)phenyl)thiazole-4-carboxamide] | less potent NIK enzyme inhibitor than Compound 6 | –
COc1ccn2c(C(N)=O)nc(-c3cccc(C#C[C@@]4(O)C(=O)N(C)[C@H]5C[C@H]54)c3)c2c1 [1-(3-(((1 S,4R,5R)-4-hydroxy-2-methyl-3-oxo-2-azabicyclo[3.1.0]hexan-4-yl)ethynyl)phenyl)-7-methoxyimidazo[1,5-a]pyridine-3-carboxamide] | second most potent NIK enzyme inhibitor among the 4 stereoisomers | –
